Active and inactive are the calls of the source. The calls are words filed in the database; no cut-off is given here.
Experiments:
MEF [1] = test: Inhibition of hedgehog signalling in mouse Sufu-KO MEF cells assessed as upregulation of VDR expression at >15 uM in by immunoblot analysis; assay type: cell-based; settings: dose microM >15
ASZ001 [2] = test: Inhibition of hedgehog signalling in mouse ASZ001 cells assessed as upregulation of Cyp27A1 expression by immunoblot analysis; assay type: cell-based
[3] = target: T1, Vitamin D3 receptor (Mus musculus) (UniProt P48281); test: Activation of VDR in mouse C3H 10T1/2 cells assessed as upregulation of Cyp24A1 mRNA expression at 5 uM measured after 48 hrs by RT-PCR analysis relative to control; assay type: cell-based
T1 sequence (whole entry): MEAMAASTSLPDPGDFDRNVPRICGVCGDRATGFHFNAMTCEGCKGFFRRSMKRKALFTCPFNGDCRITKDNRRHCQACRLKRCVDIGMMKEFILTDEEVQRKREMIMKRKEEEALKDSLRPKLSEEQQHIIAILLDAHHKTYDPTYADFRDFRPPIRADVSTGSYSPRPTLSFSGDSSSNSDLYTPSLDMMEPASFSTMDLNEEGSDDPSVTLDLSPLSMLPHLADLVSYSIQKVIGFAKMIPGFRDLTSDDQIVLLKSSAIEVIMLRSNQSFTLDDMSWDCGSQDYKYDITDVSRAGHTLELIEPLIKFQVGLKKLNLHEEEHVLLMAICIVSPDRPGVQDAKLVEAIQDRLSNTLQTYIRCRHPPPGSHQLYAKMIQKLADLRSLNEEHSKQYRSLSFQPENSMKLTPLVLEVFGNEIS

[4] = Inhibition of hedgehog signalling in mouse C3H 10T1/2 cells assessed as reduction in Gli1 mRNA expression measured after 48 hrs by RT-PCR analysis; assay type: cell-based; settings: C3H 10T1/2, 48 h
ASZ001 [5] = test: Inhibition of hedgehog signalling in mouse ASZ001 cells assessed as upregulation of Cyp27B1 expression by immunoblot analysis; assay type: cell-based
[6] = Binding affinity to recombinant human HSP70 assessed as dissociation constant incubated for 1 hrs […]
[7] = Inhibition of hedgehog signalling in mouse ASZ001 cells assessed as reduction in Gli1 mRNA expression measured after 48 hrs by RT-PCR analysis; assay type: cell-based; settings: ASZ001, 48 h
Mus musculus = species: Mus musculus; test: Selectivity index, ratio of IC50 for Inhibition of hedgehog signalling in mouse VDR-KO MEF cells to IC50 for inhibition of hedgehog signalling in mouse ASZ001 cells; assay type: cell-based
[8] = target: T1, Vitamin D3 receptor (Mus musculus); test: Activation of VDR in mouse ASZ001 cells assessed as upregulation of Cyp24A1 mRNA expression at 5 uM measured after 48 hrs by RT-PCR analysis relative to control; assay type: cell-based
[9] = Inhibition of hedgehog signalling in mouse Sufu-KO MEF cells assessed as reduction in Gli1 mRNA expression measured after 48 hrs by RT-PCR analysis; assay type: cell-based
MEF [10] = test: Inhibition of hedgehog signalling in mouse Sufu-KO MEF cells assessed as upregulation of Cyp27B1 expression by immunoblot analysis; assay type: cell-based
ASZ001 [11] = test: Inhibition of hedgehog signalling in mouse ASZ001 cells assessed as downregulation of VDR expression in by immunoblot analysis; assay type: cell-based
[12] = Inhibition of hedgehog signalling in mouse Ptch-KO MEF cells assessed as reduction in Gli1 mRNA expression measured after 48 hrs by RT-PCR analysis; assay type: cell-based
MEF [13] = test: Inhibition of hedgehog signalling in mouse Sufu-KO MEF cells assessed as upregulation of Cyp27A1 expression by immunoblot analysis; assay type: cell-based
MEF [14] = test: Inhibition of hedgehog signalling in mouse Sufu-KO MEF cells assessed as upregulation of VDR expression at 10 uM in by immunoblot analysis; assay type: cell-based
ASZ001 [15] = test: Inhibition of hedgehog signalling in mouse ASZ001 cells assessed as upregulation of VDR expression in by immunoblot analysis; assay type: cell-based
[16] = target: T1, Vitamin D3 receptor (Mus musculus); test: Activation of VDR in mouse ASZ001 cells assessed as upregulation of Cyp24A1 mRNA expression at 2.5 uM measured after 48 hrs by RT-PCR analysis relative to control; assay type: cell-based; settings: filed as activator
[17] = target: T1, Vitamin D3 receptor (Mus musculus); test: Activation of VDR in mouse C3H 10T1/2 cells assessed as upregulation of Cyp24A1 mRNA expression at 2.5 uM measured after 48 hrs by RT-PCR analysis relative to control; assay type: cell-based; settings: filed as activator
[18] = Inhibition of hedgehog signalling in mouse VDR-KO MEF cells assessed as reduction in Gli1 mRNA expression measured after 48 hrs by RT-PCR analysis; assay type: cell-based
Homo sapiens [19] = species: Homo sapiens; test: Binding affinity to recombinant human HSP70 at 200 uM incubated for 1 hrs in presence of Calcitriol by Western blotting based pull-down assay; settings: filed as antagonist
C3H 10T1/2 = test: Antiproliferative activity against mouse C3H 10T1/2 assessed as reduction in cell proliferation incubated for 72 hrs by MTS assay; assay type: functional, cell-based
Homo sapiens [20] = species: Homo sapiens; test: Binding affinity to recombinant human HSP70 incubated for 1 hrs by Western blotting based pull-down assay; settings: filed as antagonist
ASZ001 [21] = test: Antiproliferative activity against mouse ASZ001 assessed as reduction in cell proliferation incubated for 72 hrs by MTS assay; assay type: functional, cell-based
Homo sapiens [22] = species: Homo sapiens; test: Competitive binding affinity to recombinant human HSP70 at 200 uM incubated for 1 hrs in presence of Vitamin D3 by Western blotting based pull-down assay
Homo sapiens [23] = species: Homo sapiens; test: Binding affinity to recombinant human HSP70 at 200 uM incubated for 1 hrs in presence of calcidiol by Western blotting based pull-down assay
ASZ001 [24] = test: Inhibition of hedgehog signalling in mouse ASZ001 cells assessed as reduction in Gli1 mRNA expression at 10 uM for 20 hrs by […]; assay type: cell-based

| SMILES | Activity ([3]; filed as activator) [%] | IC50 [4] [nM] | Kd [6] [nM] | IC50 [7] [nM] | Activity ([8]; filed as activator) [%] | Activity [8] [%] | other results |
| --- | --- | --- | --- | --- | --- | --- | --- |
| C=C1CC[C@H](O)C/C1=C/C=C1\CCC[C@]2(C)[C@@H]([C@H](C)CCCC(C)C)CC[C@@H]12 [CHOLECALCIFEROL] | 100 | 4100 | 1400 | 2100 | 100 |  | inhibition (MEF [1]): Active; Activity (ASZ001 [2]): inactive; Activity (ASZ001 [5]): inactive; Ratio IC50 (Mus musculus): 2; IC50 ([9]; Mus musculus, MEF, 48 h, read-out: IC50): 13600 nM; Activity (MEF [10]): Dose-Dependent Effect; Activity (ASZ001 [11]): inactive; IC50 [12]: 5800 nM; Activity (MEF [13]): Dose-Dependent Effect |
| C=C1/C(=C\C=C2/CCC[C@]3(C)[C@@H]([C@H](C)CCCC(C)(C)O)CC[C@@H]23)C[C@@H](O)C[C@@H]1O |  |  |  |  |  |  | Activity (MEF [14]): Active; Activity (ASZ001 [15]): Active |
| CCn1c(=O)/c(=C2\Sc3ccccc3N2C)s/c1=C\c1cccc[n+]1CC.[Cl-] |  | 5600 |  | 1800 |  |  | IC50 ([9]; mef): Not Active; IC50 [12]: 9500 nM |
| COc1ccc(-c2nc(-c3cc(C(F)(F)F)cc(C(F)(F)F)c3)n(Cc3ccc(C(N)=O)cc3)c2-c2ccc(OC)cc2)cc1 |  | 970 | 840 | 580 |  |  | IC50 ([9]; mef): Not Active; IC50 [12]: 1700 nM |
| C#CCO[C@H](CCC(C)(C)O)[C@@H](C)[C@H]1CC[C@H]2/C(=C/C=C3/C[C@@H](O)CCC3=C)CCC[C@]12C |  |  |  | 13800 |  | < 1 |  |
| C#CCO[C@@H](CCC(C)C)[C@@H](C)[C@H]1CC[C@H]2/C(=C/C=C3/C[C@@H](O)CCC3=C)CCC[C@]12C |  | 2600 |  | 260 |  | < 1 | Activity [3]: < 1% |
| C=C1CC[C@H](O)C/C1=C/C=C1\CCC[C@]2(C)[C@@H]([C@H](C)[C@H](O)CCC(C)C)CC[C@@H]12 | 214 | 1200 | 4300 | 420 | 103 |  |  |
| C=C1CC[C@H](O)C/C1=C/C=C1\CCC[C@]2(C)[C@@H]([C@H](C)[C@H](O)CCC(C)(C)O)CC[C@@H]12 | 527 | 790 | 40300 | 710 | 122 |  |  |
| C=C1CC[C@H](O)C/C1=C/C=C1\CCC[C@]2(C)[C@@H]([C@H](C)[C@@H](O)CCC(C)(C)O)CC[C@@H]12 | 540 | 1200 | > 50000 | 1700 | 130 |  |  |
| C=C1CC[C@H](O)C/C1=C/C=C1\CCC[C@]2(C)[C@@H]([C@H](C)CCCC(C)(C)O)CC[C@@H]12 [CALCIFEDIOL ANHYDROUS] |  | 480 | 6500 | 400 |  |  | Activity [16]: > 500%; Activity [17]: > 500%; IC50 [18]: 4400 nM; Ratio IC50 (Mus musculus): 11 |
| C=C1CC[C@H](O)C/C1=C/C=C1\CCC[C@]2(C)[C@@H]([C@H](C)[C@@H](CCC(C)(C)O)OCc3cn(CCOCCOCCOCCNC(=O)CCCC[C@H]4SC[C@H]5NC(=O)N[C@H]54)nn3)CC[C@@H]12 |  | 1900 |  | 1100 |  | < 1 | Activity (Homo sapiens [19]): Active; Activity (C3H 10T1/2): Active; Activity (Homo sapiens [20]): Dose-Dependent Effect; Activity (ASZ001 [21]): Active; Activity [3]: < 1%; Activity (Homo sapiens [22]): inactive; Activity (Homo sapiens [23]): inactive; Activity (ASZ001 [24]): Active |
| C=C1CC[C@H](O)C/C1=C/C=C1\CCC[C@]2(C)[C@@H]([C@H](C)[C@H](CCC(C)(C)O)OCc3cn(CCOCCOCCOCCNC(=O)CCCC[C@H]4SC[C@H]5NC(=O)N[C@H]54)nn3)CC[C@@H]12 |  | 7200 |  | 3400 |  | < 1 | Activity (C3H 10T1/2): Active; Activity (ASZ001 [21]): Active; Activity [3]: < 1% |
| C=C1CC[C@H](O)C/C1=C/C=C1\CCC[C@]2(C)[C@@H]([C@H](C)[C@@H](O)CCC(C)C)CC[C@@H]12 | 261 | 1300 | 11500 | 380 | 105 |  |  |
| C#CCO[C@H](CCC(C)C)[C@@H](C)[C@H]1CC[C@H]2/C(=C/C=C3/C[C@@H](O)CCC3=C)CCC[C@]12C |  | 1100 |  | 430 |  | 9 | Activity [3]: < 1% |
